Columns and labels:
healthy volunteers [1] = experiment: Clinical trial: effect on heart rate (EmaxHR) from 12-lead Holter ECG recordings; type: in vivo, human; settings: for mean EmaxHR (maximum change from baseline in time matched, hourly average HR): Day 10, monotherapy at steady state, siponimod 2 mg qd after titration or propranolol 80 mg LA qd, placebo 11.73 bpm
Source text: (§1) Healthy volunteers (men and women) aged between 18 and 55 years with a body mass index of 18-30 kg/m^2 were included in the study. Subjects were required to have an FEV1 of ≥90% of predicted normal, a systolic blood pressure (BP) of 90-140 mm Hg, a diastolic BP of 50-90 mm Hg and a pulse rate of 50-90 bpm. Women of childbearing potential, pregnant or lactating women, homozygous carriers for CYP2C9*3 genotype, smokers, those with current or medical history of cardiovascular disorders or bronchospastic disease were excluded from this study. At screening, a 24 h Holter recording was performed on all subjects to exclude those with any significant arrhythmia.
This was a double-blind, randomised, placebo-controlled study consisting of the following periods: screening (28 days), baseline evaluation (2 days), treatment (20 days) and study completion evaluation (approximately 10 days after the last drug administration; FIG. 1). Eligible subjects were domiciled for 22 days, starting approximately 36 h before dosing until 24 h post-dose after Day 20. The baseline evaluations were performed on Day −2 or Day −1. Subjects were randomised to one of the four treatment groups (A, B, C and D) in a ratio of 1:1:1:1. […] In Group A, treatment was initiated with the siponimod dose-titration regimen (Days 1-6) followed by siponimod 2 mg (Days 7-20). Siponimod was uptitrated by one administration of 0.25 mg siponimod on day 1, one administration of 0.25 mg siponimod on day 2, one administration of 0.5 mg siponimod on day 3, one administration of 0.75 mg siponimod on day 4, one administration of 1.25 mg siponimod on day 5 and one administration of 2 mg siponimod on day 6, followed by a steady dose of 2 mg siponimod qd thereafter. […] These subjects concomitantly received siponimod-placebo (Days 1-10), followed by the siponimod dose-titration regimen (Days 11-16) and siponimod 2 mg (Days 17-20). […]
(§2) The HR and bradyarrhythmias were evaluated from the 12-Lead Holter electrocardiogram (ECG) recordings. […] The hourly average HR in each post-dose hour was calculated from the 60 intervals of per minute HR data. […]

healthy volunteers [2] = experiment: Clinical trial: bradyarrhythmias (AVBs, sinus pauses) from 24 h post-dose Holter evaluation; type: in vivo, human
Source text: as §1
This was a double-blind, randomised, placebo-controlled study consisting of the following periods: screening (28 days), baseline evaluation (2 days), treatment (20 days) and study completion evaluation (approximately 10 days after the last drug administration; FIG. 1). Eligible subjects were domiciled for 22 days, starting approximately 36 h before dosing until 24 h post-dose after Day 20. […]
as §2
The cardiac rhythm was evaluated from the 24 h post-dose Holter evaluation as mentioned earlier. […]

[3] = deduced on the basis of previous reports (Legangneux 2013, Murdoch 1991); cited from earlier work

| SMILES | mean EmaxHR (maximum change from baseline in time matched, hourly average HR) (healthy volunteers [1]) | episodes of Mobitz I AVB (healthy volunteers [2]; propranolol only treatment) | mean difference in EmaxHR, siponimod alone versus propranolol alone (healthy volunteers [1]; Day 10, 95% CI -4.98, 2.87, P=0.595) | episodes of second-degree AVBs or SPs of >3 seconds duration (healthy volunteers [2]; 24 h Holter on the evaluation days) | time to reach a pharmacokinetic steady state [3] |
| --- | --- | --- | --- | --- | --- |
| CC(C)NCC(O)COc1cccc2ccccc12 (stereo not drawn) [propranolol, reference compound] | 17.85 bpm | Two |  |  |  |
| CCc1cc(/C(C)=N/OCc2ccc(C3CCCCC3)c(C(F)(F)F)c2)ccc1CN1CC(C(=O)O)C1 [siponimod, 1-{4-[1-((E)-4-cyclohexyl-3-trifluoromethyl-benzyloxyimino)-ethyl]-2-ethyl-benzyl}-azetidine-3-carboxylic acid] | 16.79 bpm |  | −1.06 bpm | no episodes | approximately 10 days |

— US12533340B2, “Treatment of autoimmune disease in a patient receiving additionally a beta-blocker” (NOVARTIS AG, priority 2015, dated 2026)
